Experimental findings from patent US20220257596A1, “METHODS FOR TREATING MEIBOMIAN GLAND DYSFUNCTION WITH LIVER X RECEPTOR AGONISTS” (Novartis AG, priority 2019, published 2022) are described below.

Assay [1] relates to SCD1 protein production in SZ95-SCD1-HiBit cells. The experiment in a line: Measurement of SCD1 expression in SZ95-SCD1-HiBit cells (HiBiT assay). The assay is classed as cell-based. The settings on record: Homo sapiens; for EC50: SZ95-SCD1-HiBit cells, 48h incubation, top concentration 18 μM; for Emax: percent compared to the reference compound (Compound H), 48h, read-out: HiBit Amax. The protocol:
SZ95-SCD1-HiBit cells were seeded in 384-well cell culture white plates at a density of 3000 cells/30 ul. Water is added to edge wells to avoid evaporation. Cells were incubated in a humidified incubator with 5% CO2 at 37° C. overnight. Tested compounds were diluted at a ratio of 1:3 using Agilent BRAVO Automated Liquid Handling Platform and added to cells at final concentrations starting from 18 μM. Compound H was used as a reference compound in each plate. Cells in the assay plate were incubated in a humidified incubator with 5% CO2 at 37° C. for 48h.
The assay plates were removed from the incubator and allowed to equilibrate to room temperature. Nano-Glo® HiBiT Detection Reagent (Promega; a mixture of Nano-Glo HiBiT Detection Buffer, Nano-Glo HiBiT Detection Substrate, and LgBiT protein) was added into assay plates, at a volume equal to cell culture medium in each well. Plates were placed on an orbital shaker at a speed of 300-600 rpm for 10 min at room temperature, and read on an EnVision Plate Reader using luminescence detection with a 1 second read time.
The assay measures the increase in SCD1 protein production in vitro. Amax refers to the percent […] of the tested compound compared to the reference compound.

In assay [2] the test system is SZ95 (immortalized human sebaceous gland cells) cells. Nature of the assay: Sentinel lipid assay (desaturation index in SZ95 sebocytes). Type of assay: cell-based. The settings on record: for EC50: SZ95 cells, 72h incubation, top concentration 10 μM, desaturation index, read-out: SLA EC50; for Emax: percent compared to the reference compound (Compound H), 72h, read-out: SLA Amax. The protocol: SZ95 (immortalized human sebaceous gland cells) cells were seeded in Greiner bio-one 96-well polypropylene plates that were pre-treated with 50 μg/ml Human Plasma Fibronectin (Thermo Fisher Scientific) at a density of 10^4 cells/135 μl. Cells were incubated in a humidified incubator with 5% CO2 at 37° C. overnight. Test compounds were diluted at a ratio of 1:3 and added to cells at final concentrations starting from 10 μM. Compound H was used as a positive control reference compound in each plate. Cells in the assay plate were incubated in a humidified incubator with 5% CO2 at 37° C. for 72h.
Culture medium was removed from the cells and cells in culture plates were washed with ice cold phosphate buffered saline three times. Plates were heat sealed and stored in a −80° C. freezer prior to Sentinel lipid assay.
Sentinel lipid assay: The sentinel lipid assay was used quantify the change in the global desaturation index in SZ95 sebocytes upon administration of LXR agonist compounds. The assay measures a smaller subset of lipid analytes in […] (termed “sentinel lipids”) which would model the global changes the population of both saturated and desaturated lipids in the cells. In order to define this smaller subset of lipids, a complete lipid profile was recorded on dose response curves (eight levels from 4 nM to 10 uM) of Compounds A-N. An elastic net regression model was applied separately to both the saturated and desaturated lipids to determine the minimum combination of coefficients and analytes which could be used to adequately model the total population of lipids. The elastic net model was able to reduce the behavior of 425 lipids to 11 lipids and the correlation between the desaturation indices observed using the complete set of lipids with from the 11 sentinel lipids was 0.96.
A medium throughput assay was created using this reduced set of sentinel lipids. A single batch is defined as triplicate examples of three unique plates (i.e., a single batch of cells is used to create nine plates for LC-MSMS analysis). Lipids were extracted from the cells using a 1:1 mixture of methylene chloride/methanol containing 10 nM of deuterated standards of triglycerides, which are used as internal standards for quantitating the lipid abundance. The lipids were separated prior to mass spectrometric analysis using a five minute HPLC gradient. The abundance of the sentinel lipids and the internal standards are measured using multiple reaction monitor mode (MRM) on a triple quadrupole mass spectrometer. The data was transformed from total ion current to nmoles/10^6 cells, which are multiplied by the coefficients from the elastic net model to determine the effective desaturated and saturated content, and therein the desaturation index of the dosed cells. In order to compare compounds from multiple batches with one another, the measure raw desaturation index was normalized by dividing it by the desaturation index of the DMSO dosed cells, and all data was assessed as the fraction by which the compound increases the desaturation index above 1. The Amax value refers to the percent […] of the tested compound compared to the reference compound.

Assay [3] is described as follows: In vivo measurement of lowered meibum melting temperature (DSC). Further details: species or system Sprague Dawley rats. The settings on record: for Change of Tm: compound versus vehicle, rat meibum, DSC (method gives °C); for Mean ± SEM of Compound (meibum melting temperature): naive Sprague Dawley rats, 1% compound, DSC peak temperature (method gives °C), in °C; for Meibum melting temperature, in words: rat eyes, concentration of 1%, in comparison to vehicle. The protocol: For specific compounds Compound B and Compound C, the lowering of rat meibum melting temperature was measured in naive Sprague Dawley rats. The test animals were administered either vehicle or Compound B or Compound C, the meibum collected upon administration of the compounds was analyzed by differential scanning calorimetry to measure the melting point. The lowering of meibum melting point in rats administered Compound B or Compound C were compared to vehicle.
Melting properties of meibum were obtained using differential scanning calorimetry thermograms, recorded on a TA Discovery Q5000 (ThermoAnalytical). Samples were sealed in standard 40 μl aluminum pans and subjected to a heat-cool-heat cycle with melting temperatures being recorded on the second heating ramp. The samples were first heated to 150° C. at 30K/min then cooled −30° C. at 30K/min. Next, the sample was heated to 75° C. with an underlying heating rate of 2K/min, a period of modulation of 60 seconds and a temperature amplitude of modulation of 1° C. Dry N2 gas, at a flow rate of 50 mL/min was used to purge the DSC equipment during the measurement. Onset of melting and peak temperatures were recorded with peak temperature quoted as the melting point.
Results from the assay are shown Table 3 and in FIGS. 1 and 2. Results were analyzed using an unpaired t test with Welch's correction.
For orientation: In DSC, transitions show as peaks or steps in heat flow.

For `CN(C)C(=O)c1ccc(N2CCC(C3CCN(S(=O)(=O)c4ccccc4Cl)CC3)CC2)cc1Cl` [Compound M, 2-chloro-4-(1′-((2-chlorophenyl)sulfonyl)-[4,4′-bipiperidin]-1-yl)-N,N-dimethylbenzamide], in assay [1], the EC50 (in general, the concentration that produces a half-maximal response) is > 18000 nM and the Emax turned out to be 39.1%. Also, in assay [2], the EC50 was > 10000 nM and the Emax worked out at 29.2%.

Turning to `O=S(=O)(c1ccccc1)N(CC(F)(F)F)c1ccc(C(O)(C(F)(F)F)C(F)(F)F)cc1` [Compound F, N-(4-(1,1,1,3,3,3-hexafluoro-2-hydroxypropan-2-yl)phenyl)-N-(2,2,2-trifluoroethyl)benzenesulfonamide], in assay [1], a half-maximal effect (EC50) was put at 47.4 nM and the Emax amounted to 76.1%. In assay [2], the EC50 was found to be 190 nM and the Emax came out at 89.8%.

For `Fc1ccc(-c2c3cccc(C(F)(F)F)c3nn2Cc2ccc(F)cc2Cl)cc1` [Compound L, 2-(2-chloro-4-fluorobenzyl)-3-(4-fluorophenyl)-7-(trifluoromethyl)-2H-indazole], in assay [1], the EC50 was > 18000 nM and the Emax was determined as 48.4%. Further, in assay [2], the 50% effective concentration (EC50) was > 10000 nM and the Emax turned out to be 33.3%.

As to `CC(C)(O)c1cn(-c2ccc(-c3cc(F)c(CO)c(S(C)(=O)=O)c3)cc2F)c(C(C)(C)c2c(Cl)cccc2Cl)n1` [Compound I, 2-(2-(2-(2,6-dichlorophenyl)propan-2-yl)-1-(3,3′-difluoro-4′-(hydroxymethyl)-5′-(methylsulfonyl)-[1,1′-biphenyl]-4-yl)-1H-imidazol-4-yl)propan-2-ol], in assay [1], the EC50 was > 18000 nM and the Emax is 43.3%. Moreover, in assay [2], the concentration for a half-maximal effect (EC50) was found to be 4520 nM and the Emax is 60.2%.

For `CN(C)C(=O)c1ccc(-c2cnc(N3CCN(C(=O)C(C)(C)c4ccccc4)CC3)c(C#N)c2)cc1Cl` [Compound K, 2-chloro-4-(5-cyano-6-(4-(2-methyl-2-phenylpropanoyl)piperazin-1-yl)pyridin-3-yl)-N,N-dimethylbenzamide], in assay [1], a half-maximal effect (EC50) was put at 538 nM and the Emax stood at 66%. For the same compound, in assay [2], the EC50 came out at 458 nM and the Emax was 151%.

With `CCCc1c(OCCCN(C)c2cnc(CC(=O)O)cn2)ccc2c(C(F)(F)F)noc12` [Compound E, 2-(5-(methyl(3-((7-propyl-3-(trifluoromethyl)benzo[d]isoxazol-6-yl)oxy)propyl)amino)pyrazin-2-yl)acetic acid], in assay [1], the EC50 is 29.4 nM and the Emax was determined as 77.9%. In assay [2], the concentration giving a half-maximal response (EC50) is 69 nM and the Emax was 81.8%.

Turning to `CC(C)(C)N1C(=O)C(Nc2ccc(N3CCCCC3)cc2)=C(c2ccccc2)S1(=O)=O` [Compound B, 2-(tert-butyl)-5-phenyl-4-((4-(piperidin-1-yl)phenyl)amino)isothiazol-3(2H)-one 1,1-dioxide], in assay [1], the half-maximal effective concentration (EC50) is 1.8 nM and the Emax worked out at 64%. For the same compound, in assay [2], the EC50 stood at 168 nM and the Emax turned out to be 92%. In assay [3], the “Change of Tm” value was −1.534 ± 0.3522; the “Mean ± SEM of Compound (meibum melting temperature)” value came out at 29.1 ± 0.2363; the “Meibum melting temperature, in words” value was “decrease in meibum melting temperature”.

With `O=C(O)Cn1ccc2c(OCCCN(Cc3cccc(C(F)(F)F)c3Cl)CC(c3ccccc3)c3ccccc3)cccc21` [Compound A, 2-(4-(3-((2-chloro-3-(trifluoromethyl)benzyl)(2,2-diphenylethyl)amino)propoxy)-1H-indol-1-yl)acetic acid], in assay [1], the concentration for a half-maximal effect (EC50) is 4.9 nM and the Emax was 94%. Further, in assay [2], the EC50 amounted to 7.3 nM and the Emax was determined as 104%.

With `CCN(Cc1ccccc1)c1ccc(C(O)(C(F)(F)F)C(F)(F)F)cc1Cl` [Compound J, 2-(4-(benzyl(ethyl)amino)-3-chlorophenyl)-1,1,1,3,3,3-hexafluoropropan-2-ol], in assay [1], a half-maximal response (EC50) required 323 nM and the Emax is 77.5%. Also, in assay [2], the concentration giving a half-maximal response (EC50) was found to be 1470 nM and the Emax is 58%.

In the case of `CC(C)[C@@H]1CN(c2ccc(CO)c(S(C)(=O)=O)c2)CCN1c1ncc(CO)c(C(F)(F)F)n1` [Compound D, (R)-(2-(4-(4-(hydroxymethyl)-3-(methylsulfonyl)phenyl)-2-isopropylpiperazin-1-yl)-4-(trifluoromethyl)pyrimidin-5-yl)methanol], in assay [1], a half-maximal response (EC50) required 2 nM and the Emax amounted to 66.2%. In addition, in assay [2], the concentration giving a half-maximal response (EC50) turned out to be 41.8 nM and the Emax worked out at 65.6%.

Consider `O=C(O)Cc1cccc(OCCCN(Cc2cccc(C(F)(F)F)c2Cl)CC(c2ccccc2)c2ccccc2)c1` [Compound H, 2-(3-(3-((2-chloro-3-(trifluoromethyl)benzyl)(2,2-diphenylethyl)amino)propoxy)phenyl)acetic acid], for which the concentration for a half-maximal effect (EC50) was 113 nM in assay [1] and 88.1 nM in assay [2]. In addition, the values for the Emax in assay [1] and in assay [2] were 92% and 97.4%, respectively.

For `CC(C)[C@@H]1c2nc3cc(CO)c(S(C)(=O)=O)cc3n2CCN1c1ncc(C(C)(C)O)c(C(F)(F)F)n1` [Compound N, (R)-2-(2-(8-(hydroxymethyl)-1-isopropyl-7-(methylsulfonyl)-3,4-dihydrobenzo[4,5]imidazo[1,2-a]pyrazin-2(1H)-yl)-4-(trifluoromethyl)pyrimidin-5-yl)propan-2-ol], the values for the half-maximal effective concentration (EC50) in assay [1] and in assay [2] were 4 nM and 52 nM, respectively. For the same compound, the Emax in assay [1] was 72.4%; in assay [2], 165%.

For `C[C@H](CCOc1cccc(C(C)(C)C(=O)O)c1)N(Cc1cccc(C(F)(F)F)c1Cl)CC(c1ccccc1)c1ccccc1` [Compound C, (R)-2-(3-(3-((2-chloro-3-(trifluoromethyl)benzyl)(2,2-diphenylethyl)amino)butoxy)phenyl)-2-methylpropanoic acid], in assay [1], the half-maximal effective concentration (EC50) amounted to 0.9 nM and the Emax came out at 69.9%. Also, in assay [2], the concentration for a half-maximal effect (EC50) came to 5.5 nM and the Emax stood at 90.7%. Further, in assay [3], the “Change of Tm” value is given as −1.513 ± 0.6575; the “Mean ± SEM of Compound (meibum melting temperature)” value worked out at 30.68 ± 0.6065; the “Meibum melting temperature, in words” value is “decrease in meibum melting temperature”.
